Measurements from patent publication US4446315A, “Adenosine 5'-triphosphate-4-carboxamide-ribofuranosylthiazole” (The United States of America as represented by the …, priority 1982, dated 1984).
“Also recorded” adds a separate entry of the source. Read-outs that look alike come from different tables or passages of the source.

Legend:
[1] = Antitumor activity of the metabolite administered as such; conditions: compared with progenitor TR; initial experiments
P388 leukemic cells = test: Cytotoxicity against P388 leukemic cells in culture; assay type: cell-based; conditions: Mus musculus, read-out: Cytotoxicity Against P388 Leukemic Cells in Culture IC50 (median inhibitory concentration)
[2] = biological target: bacterial IMP dehydrogenase; test: Inhibition of bacterial IMP dehydrogenase; assay type: biochemical; conditions: chemically synthesized TAD; read-out: Ki against bacterial IMP dehydrogenase

NC(=O)c1csc([C@@H]2O[C@H](COP(=O)(O)OP(=O)(O)OC[C@H]3O[C@@H](n4cnc5c(N)ncnc54)[C@H](O)[C@@H]3O)[C@@H](O)[C@H]2O)n1 [TAD, adenosine 5'-(trihydrogen diphosphate) 5'→5'-ester with 4-carboxamide-2-β-D-ribofuranosylthiazole]
Antitumor activity [1]: active when administered as such; also recorded: superior to that of its progenitor
IC50 (P388 leukemic cells; P388, chemically synthesized TAD): 3.5 µM
IC50 (P388 leukemic cells; P388, enzymatically (biologically) synthesized TAD): 2.5 µM
Ki [2]: 3.4 µM
